The values below come from patent US12697367B2, “Medicament for improving or preventing symptoms relating to retina and/or light reception and method for screening for substance capable of improving or preventing symptoms relating to retina and/or light reception” (Osaka University, priority 2018, dated 2026).

Assay [1] relates to BALB/c mice with light-induced damage (blue LED light). Description: Light-induced damage experiment in mice: immunofluorescence staining of the photoreceptor layer of the retina. The format is in vivo. The conditions noted are these: tacrolimus 10 mg/kg subcutaneously every day for 6 days. The protocol: For dark adaptation, BALB/c mice aged 4 weeks (Japan SLC, Inc.) were housed in the dark for 12 hours. […] For control mice, DMSO was administered. Mydriatic eye drops, […] Pharmaceutical Co., Ltd.), were administered in the dark 30 minutes before completion of dark adaptation. The mice were placed in a box with four mirrored walls and a mirrored floor, and exposed to blue light from a blue LED light. The wavelength of the blue LED light was about 450 nm, and the light reaching the mice was about 7000 lx. After exposure to blue light for 3 hours, the mice were housed under normal light conditions (about 30 lx light from fluorescent lamps) for 9 hours. This dark/light cycle repeated as one cycle for 6 days. In other words, administration of the drug and exposure to blue light (3 hours) were performed every day for 6 days to induce light-induced damage. On the next day following the last exposure to blue light, the mice were euthanized and the eyes were harvested. The specimens were fixed in 4% paraformaldehyde/PBS (phosphate buffer saline) at room temperature for 5 minutes. The specimens were then washed with PBS, and embedded in O.C.T. compound (Sakura Finetek). Retinal cryosections of 20 μm thick were sliced with a cryostat, mounted on glass slides, and dried at room temperature. The sections were washed twice with PBS, and blocked with blocking buffer (5% normal donkey serum and 0.1% TritonX-100 in PBS) at room temperature for 1 hour. The sections were reacted with primary antibodies at 4° C. overnight. The sections were washed three times with PBS, and reacted with secondary antibodies at room temperature for 2 hours. The primary antibodies used in this study were anti-Rhodopsin antibody (rhodopsin, rabbit polyclonal, Santa Cruz, 1:500 dilution), anti-S-opsin antibody (S-opsin (blue cone opsin), goat polyclonal, Santa Cruz, 1:500 dilution), and anti-M-opsin antibody (M-opsin (green cone opsin), rabbit polyclonal, Millipore, 1:500 dilution). […] All the fluorescence images were acquired under a confocal laser scanning microscope (LSM 700, Carl Zeiss).

Assay [2] has the same test system. The assay is described as follows: Light-induced damage experiment in mice: measurement of thickness of photoreceptor layer. The format is in vivo. Particulars: tacrolimus 10 mg/kg subcutaneously every day for 6 days; blue light about 450 nm, about 7000 lx, 3 hours daily; vs DMSO control; FIG. 3. On the procedure: For dark adaptation, BALB/c mice aged 4 weeks (Japan SLC, Inc.) were housed in the dark for 12 hours. […] For control mice, DMSO was administered. Mydriatic eye drops, Cyplegin (Santen Pharmaceutical Co., Ltd.), were administered in the dark 30 minutes before completion of dark adaptation. The mice were placed in a box with four mirrored walls and a mirrored floor, and exposed to blue light from a blue LED light. The wavelength of the blue LED light was about 450 nm, and the light reaching the mice was about 7000 lx. After exposure to blue light for 3 hours, the mice were housed under normal light conditions (about 30 lx light from fluorescent lamps) for 9 hours. This dark/light cycle repeated as one cycle for 6 days. In other words, administration of the drug and exposure to blue light (3 hours) were performed every day for 6 days to induce light-induced damage.
Mouse retinal sections prepared in the same manner as above were washed twice with PBS, and the nuclei were stained with DAPI. The thickness of the photoreceptor layer was measured as the distance from the optic nerve. Specifically, the images were acquired under a confocal laser scanning microscope (LSM 700, Carl Zeiss), and the thickness of the photoreceptor layer was measured using the image analysis software Metamorph (Molecular Devices).

`C=CC[C@@H]1/C=C(\C)C[C@H](C)C[C@H](OC)[C@H]2O[C@@](O)(C(=O)C(=O)N3CCCC[C@H]3C(=O)O[C@H](/C(C)=C/[C@@H]3CC[C@@H](O)[C@H](OC)C3)[C@H](C)[C@@H](O)CC1=O)[C@H](C)C[C@@H]2OC` [tacrolimus, (3S,4R,5S,8R,9E,12S,14S,15R,16S,18R,19R,26aS)-5,19-Dihydroxy-3-{(1E)-2-[(1R,3R,4R)-4-hydroxy-3-methoxycyclohexyl]-1-methylethenyl}-14,16-dimethoxy-4,10,12,18-tetramethyl-8-(prop-2-en-1-yl)-15,19-epoxy-5,6,8,11,12,13,14,15,16,17,18,19,24,25,26,26a-hexadecahydro-3H-pyrido[2,1-c][1,4]oxaazacyclotricosine-1,7,20,21(4H,23H)-tetrone monohydrate]: the “structure of the outer segment of the rod photoreceptor cells (anti-Rhodopsin antibody staining)” value in assay [1] (blue light about 450 nm, about 7000 lx, 3 hours daily, vs DMSO control, FIG. 1) was “maintained and comparable to that of control mice without light-induced damage”. Further, the “structure of the cone photoreceptor cells (anti-S-opsin and anti-M-opsin antibody staining)” value in assay [1] (blue light about 450 nm, about 7000 lx, 3 hours daily, vs DMSO control, FIG. 2) is “maintained and comparable to that of control mice without light-induced damage”. Further, the “degeneration of photoreceptor cells due to light exposure (overall conclusion)” value in assay [1] (mice with light-induced damage) is on record as “inhibits the degeneration of photoreceptor cells due to light exposure”. Besides, in assay [2], the “thickness of the photoreceptor layer” value is “maintained and comparable to that of control mice without light-induced damage”.
